Data reported in patent US8258151B2, “3-aminoimidazo [1,2-A] pyridine derivatives as SGLT inhibitors” (Merck Patent GmbH, priority 2006, dated 2012).

Key:
SGLT1 = target: T1, SGLT1 (Homo sapiens, UniProt P13866); assay: SGLT1 activity measurement: 14C-AMG uptake in BHK cells transfected with SGLT1; format: cell-based; details: AMG 50 μM, 37° C., 90 min
T1 construct: expressed in transfected cells
T1 sequence (P13866 1-664): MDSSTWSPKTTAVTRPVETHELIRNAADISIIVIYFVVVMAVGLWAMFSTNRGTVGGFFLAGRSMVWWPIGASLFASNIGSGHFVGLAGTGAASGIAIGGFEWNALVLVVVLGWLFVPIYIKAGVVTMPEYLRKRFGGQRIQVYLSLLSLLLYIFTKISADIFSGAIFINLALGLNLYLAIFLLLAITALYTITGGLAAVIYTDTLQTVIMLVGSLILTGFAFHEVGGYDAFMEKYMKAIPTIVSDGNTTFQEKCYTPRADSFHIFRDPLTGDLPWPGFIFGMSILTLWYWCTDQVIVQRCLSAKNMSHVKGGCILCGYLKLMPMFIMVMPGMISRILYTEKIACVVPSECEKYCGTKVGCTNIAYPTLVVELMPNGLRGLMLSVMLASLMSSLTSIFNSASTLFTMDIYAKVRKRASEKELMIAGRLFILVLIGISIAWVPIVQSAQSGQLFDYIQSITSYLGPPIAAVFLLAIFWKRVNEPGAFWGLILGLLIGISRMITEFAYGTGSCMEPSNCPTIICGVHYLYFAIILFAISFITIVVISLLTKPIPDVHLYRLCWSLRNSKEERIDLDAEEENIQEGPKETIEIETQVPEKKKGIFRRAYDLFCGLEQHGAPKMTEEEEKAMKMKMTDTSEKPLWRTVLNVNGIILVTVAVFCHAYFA
Procedure, shortened: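 BHK21 cells stably transfected with human SLC5A1 were incubated with 14C-AMG (added solution at 50 μM) ± compound for 90 min at 37 °C. The buffer was 140 mM NaCl, HEPES/Tris, pH 7.4. Lysed-cell radioactivity was counted by scintillation, and non-specific uptake was measured in sodium-free sucrose buffer.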

SGLT2 = target: T2, SGLT2 (Homo sapiens, UniProt P31639); assay: SGLT2 activity measurement: 14C-AMG uptake in BHK cells transfected with SGLT2; format: cell-based; details: AMG 2 mM, 37° C., 90 min
T2 construct: expressed in transfected cells
T2 sequence (P31639 1-672): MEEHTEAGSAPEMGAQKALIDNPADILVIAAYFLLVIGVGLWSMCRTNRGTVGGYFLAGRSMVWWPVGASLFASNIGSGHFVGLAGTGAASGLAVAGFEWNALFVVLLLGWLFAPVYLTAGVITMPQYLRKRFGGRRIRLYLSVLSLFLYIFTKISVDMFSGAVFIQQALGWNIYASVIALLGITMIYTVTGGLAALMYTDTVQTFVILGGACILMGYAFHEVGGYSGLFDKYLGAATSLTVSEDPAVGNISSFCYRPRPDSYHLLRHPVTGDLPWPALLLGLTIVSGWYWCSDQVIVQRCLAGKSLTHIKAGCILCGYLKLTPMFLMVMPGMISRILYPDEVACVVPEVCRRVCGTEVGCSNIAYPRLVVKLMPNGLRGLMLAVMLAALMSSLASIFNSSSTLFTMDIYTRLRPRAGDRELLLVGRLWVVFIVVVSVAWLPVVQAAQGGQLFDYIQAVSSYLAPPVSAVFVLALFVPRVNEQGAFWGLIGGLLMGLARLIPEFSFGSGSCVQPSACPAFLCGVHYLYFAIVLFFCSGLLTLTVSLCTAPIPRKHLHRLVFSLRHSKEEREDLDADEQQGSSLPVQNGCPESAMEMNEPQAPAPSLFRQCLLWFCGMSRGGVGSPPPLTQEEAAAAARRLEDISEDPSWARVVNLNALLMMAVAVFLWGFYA
Procedure, shortened: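 BHK21 cells stably expressing human SGLT2 took up 14C-AMG (added as 2 mM solution) ± compound for 90 min at 37 °C in Na+-containing HEPES/Tris buffer, pH 7.4. Uptake was measured by scintillation counting after lysis. Non-specific uptake was defined in sodium-free sucrose buffer.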

| SMILES | IC50 (SGLT1) | IC50 (SGLT2) |
| --- | --- | --- |
| Cc1cccc(C)c1Nc1c(-c2c(OCC(N)=O)ccc3ccccc23)nc2ccc(F)cn12 [Compound A180, 2-{1-[3-(2,6-Dimethylphenylamino)-6-fluoro-imidazo[1,2-a]pyridin-2-yl]naphthalen-2-yloxy}-acetamide] | 1 to 10 µM | 0.01 to 1 µM |
| COc1cccc(OCC(N)=O)c1-c1nc2ccc(F)cn2c1Nc1c(C)cccc1C [Compound A1, 2-[2-(aminocarbonylmethoxy)-6-methoxyphenyl]-3-(2,6-dimethylphenylamino)-6-fluoroimidazo[1,2-a]pyridine] | 1 to 10 µM | 0.01 to 1 µM |
| CCOc1cc(CC)c(-c2nc3ccc(F)cn3c2Nc2c(C)cccc2C)c(OCC(N)=O)c1 [Compound A196, 2-[2-(Aminocarbonylmethoxy)-4-ethoxy-6-ethyl-phenyl]-3-(2,6-dimethylphenylamino)-6-fluoro-imidazo[1,2-a]pyridine] | > 10 µM | 0.01 to 1 µM |
| COC(=O)Cc1ccc(OCC(N)=O)c(-c2nc3ccccn3c2Nc2c(C)cccc2C)c1 [Compound A183, 2-[2-(Aminocarbonylmethoxy)-5-(methoxycarbonylmethyl)phenyl]-3-(2,6-dimethylphenylamino)imidazo[1,2-a]pyridine] | > 10 µM | 1 to 10 µM |
| CCc1cc(OCCOC)cc(OCC(N)=O)c1-c1nc2ccc(F)cn2c1Nc1c(C)cccc1C [Compound A187, 2-[2-(Aminocarbonylmethoxy)-4-(2-methoxy-ethoxy)-6-ethylphenyl]-3-(2,6-dimethylphenyl-amino)-6-fluoroimidazo[1,2-a]pyridine] | > 10 µM | 0.01 to 1 µM |
| CCc1cc(OC2CCCCO2)cc(OCC(N)=O)c1-c1nc2ccc(F)cn2c1Nc1c(C)cccc1C (stereo not shown) [Compound A182, 2-[2-(Aminocarbonylmethoxy)-4-(tetra-hydropyran-2-yloxy)-6-ethylphenyl]-3-(2,6-dimethylphenylamino)-6-fluoroimidazo[1,2-a]-pyridine] | > 10 µM | 0.01 to 1 µM |
| Cc1cccc2nc(-c3ccccc3OCC(N)=O)c(Nc3c(Cl)cccc3Cl)n12 [Compound A11, 2-[2-(Aminocarbonylmethoxy)phenyl]-3-(2,6-di-chlorophenylamino)-5-methylimidazo[1,2-a]-pyridine] | 1 to 10 µM | 0.01 to 1 µM |
| Cc1cccc(C(C)C)c1Nc1c(-c2ccccc2OCC(N)=O)nc2ccccn12 [Compound A7, 2-[2-(Aminocarbonylmethoxy)phenyl]-3-(2-isopropyl-6-methylphenylamino)imidazo-[1,2-a]pyridine] | > 10 µM | 1 to 10 µM |
| COc1cc(OC)c(-c2nc3ccc(F)cn3c2Nc2c(C)cccc2C)c(OCC(N)=O)c1 [Compound A199, 2-[2-(Aminocarbonylmethoxy)-4-methoxy-6-methoxyphenyl]-3-(2,6-dimethylphenylamino)-6-fluoroimidazo[1,2-a]pyridine] | > 10 µM | 0.01 to 1 µM |
| NC(=O)COc1ccccc1-c1nc2ccccn2c1Nc1c(Cl)cccc1Cl [Compound A5, 2-[2-(Aminocarbonylmethoxy)phenyl]-3-(2,6-di-chlorophenylamino)imidazo[1,2-a]pyridine] | > 10 µM | 0.01 to 1 µM |
| CCc1cccc2nc(-c3ccccc3OCC(N)=O)c(Nc3c(C)cccc3C)n12 [Compound A13, 2-[2-(Aminocarbonylmethoxy)phenyl]-3-(2,6-dimethylphenylamino)-5-ethylimidazo[1,2-a]-pyridine] | 1 to 10 µM | 0.01 to 1 µM |
| CCc1cc(OC)cc(OCC(N)=O)c1-c1nc2c(O)cccn2c1Nc1c(C)cccc1C [Compound A194, 2-[2-(Aminocarbonylmethoxy)-4-methoxy-6-ethylphenyl]-3-(2,6-dimethylphenylamino)-8-hydroxyimidazo[1,2-a]pyridine] | > 10 µM | 1 to 10 µM |
| Cc1cccc(C)c1Nc1c(-c2c(C)cc(OCC(O)CO)cc2OCC(N)=O)nc2ccc(F)cn12 (stereo not shown) [Compound A208, 2-[2-(Aminocarbonylmethoxy)-4-(2,3-dihydroxy-propoxy)-6-methylphenyl]-3-(2,6-dimethylphenyl-amino)-6-fluoroimidazo[1,2-a]pyridine] | > 10 µM | 0.01 to 1 µM |
| COc1cc(C)c(-c2nc3cccc(C)n3c2Nc2c(C)cccc2C)c(OCC(N)=O)c1 [Compound A206, 2-[2-(Aminocarbonylmethoxy)-4-methoxy-6-methylphenyl]-3-(2,6-dimethylphenylamino)-5-methylimidazo[1,2-a]pyridine] | > 10 µM | 0.01 to 1 µM |

Now from value to molecule:

| IC50 (SGLT1) | IC50 (SGLT2) | SMILES |
| --- | --- | --- |
| 1 to 10 µM | 0.01 to 1 µM | COc1cc(OCC(N)=O)c(-c2nc3ccc(F)cn3c2Nc2c(C)cccc2C)c(C)c1Cl [Compound A231, 2-[2-(Aminocarbonylmethoxy)-5-chloro-4-methoxy-6-methylphenyl]-3-(2,6-dimethylphenyl-amino)-6-fluoroimidazo[1,2-a]pyridine] |
| 1 to 10 µM | 0.01 to 1 µM | CCc1cc(OC)cc(OCC(N)=O)c1-c1nc2c(F)cc(F)c(N)n2c1Nc1c(C)cccc1C [Compound A227, 2-[2-(Aminocarbonylmethoxy)-4-methoxy-6-ethylphenyl]-3-(2,6-dimethylphenylamino)-5-amino-6,8-difluoroimidazo[1,2-a]pyridine] |
| > 10 µM | 1 to 10 µM | Cc1cccc(C)c1Nc1c(-c2ccccc2OCC(N)=O)nc2ccc(C#N)cn12 [Compound A209, 2-[2-(Aminocarbonylmethoxy)phenyl]-3-(2,6-dimethylphenylamino)-6-cyanoimidazo[1,2-a]-pyridine] |
| 1 to 10 µM | 0.01 to 1 µM | COc1cc(C)c(-c2nc3ccc(F)cn3c2Nc2c(C)ccc(Cl)c2C)c(OCC(N)=O)c1 [Compound A218, 2-[2-(Aminocarbonylmethoxy)-4-methoxy-6-methylphenyl]-3-(3-chloro-2,6-dimethylphenyl-amino)-6-fluoroimidazo[1,2-a]pyridine] |
| > 10 µM | 0.01 to 1 µM | COc1ccc(-c2nc3ccc(F)cn3c2Nc2c(C)cc(F)cc2C)c(OCC(N)=O)c1 [Compound A212, 2-[2-(Aminocarbonylmethoxy)-4-methoxy-phenyl]-3-(2,6-dimethyl-4-fluorophenylamino)-6-fluoroimidazo[1,2-a]pyridine] |
| > 10 µM | 0.01 to 1 µM | CCc1cc(OCC(N)=O)cc(OCC(N)=O)c1-c1nc2ccc(F)cn2c1Nc1c(C)cccc1C [Compound A230, 2-[2-(Aminocarbonylmethoxy)-4-(amino-carbonylmethoxy)-6-ethylphenyl]-3-(2,6-dimethylphenylamino)-6-fluoroimidazo[1,2-a]-pyridine] |
| > 10 µM | 1 to 10 µM | COC(=O)c1cccc(C)c1Nc1c(-c2c(C)cc(OC)cc2OCC(N)=O)nc2ccc(F)cn12 [Compound A246, 2-[2-(Aminocarbonylmethoxy)-4-methoxy-6-methylphenyl]-3-(2-methyl-6-methoxycarbonyl-phenylamino)-6-fluoroimidazo[1,2-a]pyridine] |
| > 10 µM | 0.01 to 1 µM | CCc1cc(OS(=O)(=O)N(C)C)cc(OCC(N)=O)c1-c1nc2ccc(F)cn2c1Nc1c(C)cccc1C [Compound A228, 2-[2-(Aminocarbonylmethoxy)-4-dimethyl-sulfamoyloxy-6-ethylphenyl]-3-(2,6-dimethyl-phenylamino)-6-fluoroimidazo[1,2-a]pyridine] |
| > 10 µM | 0.01 to 1 µM | COc1cc(C)c(-c2nc3ccc(F)cn3c2Nc2c(F)cccc2Cl)c(OCC(N)=O)c1 [Compound A248, 2-[2-(Aminocarbonylmethoxy)-4-methoxy-6-methylphenyl]-3-(2-fluoro-6-chlorophenylamino)-6-fluoroimidazo[1,2-a]pyridine] |
